Where two headings read alike, the source gives them in different places. Non-standard residues stand in square brackets, D forms with d. Residues, ends and D or L forms follow the SMILES beside them.

Consider seven compounds from publication PMC3828334, “Tumor Cell Death Mediated by Peptides That Recognize Branched Intermediates of DNA Replication and Repair” (PLoS ONE, 2013).

The subject of data set [1] is PC3 cells. The settings on record: for cell survival: MTT. The procedure:
20,000 PC3 cells were plated overnight in 96 well plates (Costar) at a concentration of 200,000 cells/ml. They are treated with the peptides, doxorubicin, docetaxel alone, or in combination for different time period incubation and the cell viability was determined by MTT assay as described. The percentage survival of the cells with different treatments was calculated using DMSO-vehicle control-treated cells as the standard.

For a further data set, the system named is Chk2 in PC3 cells. As to the kind of experiment: Phospho-Chk2 by flow cytometry. The settings on record: PC3, 1 µM doxorubicin on its own, 48 h. It counts as cell-based. On the procedure:
They were subsequently treated with either 50-200 μM […] or 50-100 μM […] or 0.5-1 μM doxorubicin or combination treatment for 0, 12, 24, 36 and 48 h. […] Samples were analyzed using a Becton Dickinson FACS Canto flow cytometer at a forward scatter voltage of 25 V, side-scatter voltage of 400 V, and FITC channel at a voltage of 400 V.
For orientation: A flow cytometer gives signals particle by particle.

For another data set, the system named is HeLa cells. As to the kind of experiment: TUNEL assay, HeLa, with z-VAD-fmk or z-FA-fmk. It counts as cell-based. On the procedure:
600,000 PC3 cells or 500,000 HeLa cells were plated in 60-mm dishes or 6-well plates respectively to allow them to attach overnight at 37°C with 5% CO2. PC3 cells were subsequently treated with appropriate treatments for 24, 36 and 48 h while HeLa cells were treated with 1 µl of either the caspase inhibitor z-VAD-fmk or z-FA-fmk (both from Biovision), containing appropriate treatments, for 24 h. The cells were fixed with 4% paraformaldehyde for 30 min and permeabilized with 0.1% Triton X-100 in 0.1% sodium citrate buffer for 3 mins. Labeled dUTP were added along with the terminal deoxynucleotidyl transferase dUTP nick end labeling (TUNEL) (TUNEL kit from Roche) as described in the kit. Samples were analyzed using a Becton Dickinson FACS Canto flow cytometer as specified above.

Data set [2] relates to Htog1 cells (variant of HeLa cells). The data set is described as follows: Cytochrome C release / TMRE assay for apoptosis. The settings on record: 150 µM etoposide, 24 h, positive control. It is filed as cell-based. On the procedure: 200,000 Htog1 cells (variant of HeLa cells, a generous gift from Drs. Terrence Frey and Maria Guo) were seeded on cover slips mounted on 35 mm microwell petri dishes (Mattek Corp, Ashland, MA) with DMEM supplemented with 10% FBS and allowed to attach overnight at 37°C in 5% CO2. The media was replaced with 1 ml of the appropriate treatment and incubated for 24 h. After 23 h of treatment, 50 µM tetramethyl rhodamine ethyl ester perchlorate (TMRE) solution was added to each well (final concentration 50 nM) and incubated for the remaining hour. Cytochrome C release and loss of TMRE staining were determined in Z-series images acquired using a Leica TCS SP2 inverted confocal microscope. GFP was excited using 488 nm wavelength from an Ar/Kr laser attenuated to 33%, and the emitted fluorescence detected at 497–553 nm. TMRE fluorescence was excited using a 543 nm wavelength from an Ar/Kr laser attenuated to 35%, and the emitted fluorescence detected at 555–620 nm. Each cell was analyzed for release of GFP (GFP channel), loss of mitochondrial membrane potential (TMRE loss) or morphological abnormalities associated with apoptosis, and the % cells positive for each hallmark was calculated for the various treatments.

Another data set concerns LnCAP cells. It is filed as cell-based. The settings on record: 48 h.
Data set [3] deals with PC3 cells. The data set is described as follows: HPLC determination of intracellular and extracellular peptide concentration. It counts as in vitro ADME. The procedure: 500,000 HeLa or 400,000 PC3 cells were plated in each well of the 6-well dishes (Costar) and allowed to attach overnight at 37°C with 5% CO2. The cells were treated with d-wrwycr or d-wrwyrggrywrw for 24 or 48 h respectively. For PC3 cells media along with the dodecamer treatments were collected for a separate run in HPLC. PC3 or HeLa cells were lysed using a lysis buffer containing 0.71% NP40, 71 mM Tris (pH 7.5), 0.71 mM EDTA and 212 mM NaCl on ice for 5–10 mins. The lysates were centrifuged at 13,000 g for 7 mins to clear cellular debris. The samples were analyzed by HPLC (Beckman Coulter System Gold BioEssential 126/168) using a Phenomonex Jupiter 4 micron Proteo 90A C18 hydrophobic column to detect the peptides within the cells. […] The intracellular concentration was calculated by taking into account the area under the peptide peaks, using the integration function of 32 Karat software (Beckman Coulter, Fullerton, California), and comparing them to the standard curve of the peptide. […] The extracellular concentration of wrwyrggrywrw was calculated by running the media similarly in HPLC and comparing them to the standard curve of wrwyrggrywrw.
To investigate whether peptide wrwycr or wrwyrggrywrw accumulated within cells, the concentration of the unlabeled and unmodified peptides was directly determined using an HPLC-based method. […]

For a further data set, the system named is DuPro-1 cells. It counts as cell-based. The settings on record: 48 h.
The test system of data set [4] is GRP78 promoter in HeLa cells. The data set is described as follows: Luciferase reporter assay for ER stress. It is filed as cell-based. Particulars: positive control. The procedure: HeLa cells were transfected with either either 15 µg of plasmid DJT208, carrying the GRP78 promoter (pGRP78) driving the ER-stress response elements ERSE 1, ERSE 2 and ERSE 3 upstream of the luciferase gene, or 15 µg of the plasmid GL2P, carrying the luciferase gene driven by the SV40 promoter (pSV40). All cells were also co-transfected with 10 µg of the PB1 plasmid, carrying the β-galactosidase reporter transcribed by the SV40 promoter, as a transfection control. [The plasmids were generous gifts from Dr. Peter Belmont from Christopher Glembotski's Lab in SDSU]. After 24 h the cells were treated with increasing concentrations of wrwycr (100, 150 and 200 µM) for 24 h and the luciferase activity was measured using an OptocompII Luminometer. Tunicamycin (TM), a known inducer of ER stress, was used as a positive control for the experiment ER stress was calculated as the fold increase of luciferase gene expression from the GRP78 promoter over that from the SV40 promoter of pGL2P for the different concentrations of the peptide over DMSO, which is the solvent for the peptide, or over the media in the case of TM.
(A reporter such as luciferase makes a cellular process visible.)

As for `CC(=O)O[C@@]12CO[C@@H]1C[C@H](O)[C@@]1(C)C(=O)[C@H](O)C3=C(C)[C@@H](OC(=O)[C@H](O)[C@@H](NC(=O)OC(C)(C)C)c4ccccc4)C[C@@](O)([C@@H](OC(=O)c4ccccc4)[C@H]21)C3(C)C` [docetaxel], the cell survival in the data set on PC3 cells [1] (PC3, 10 nM docetaxel, 48 h) is reported as 90%; with PC3 cells [1] (PC3, 50 nM docetaxel, 48 h), 80%.

For the compound `COc1cccc2c1C(=O)c1c(O)c3c(c(O)c1C2=O)C[C@@](O)(C(=O)CO)C[C@@H]3O[C@H]1C[C@H](N)[C@H](O)[C@H](C)O1` [doxorubicin], the cell survival with PC3 cells [1] (PC3, 1 µM doxorubicin alone, time course, evident at 36 h (Figure 9B)) worked out at 80%; in the data set with PC3 cells [1] (PC3, 2.5 µM doxorubicin alone, 48 h), 73%. Moreover, in the data set on Chk2 in PC3 cells, the “cellular population with activated Chk2” value worked out at 50%.

For `COc1cc([C@@H]2c3cc4c(cc3[C@@H](O[C@@H]3O[C@@H]5CO[C@@H](C)O[C@H]5[C@H](O)[C@H]3O)[C@H]3COC(=O)[C@H]23)OCO4)cc(OC)c1O` [etoposide, reference compound], in the data set on HeLa cells (1.3 µM etoposide alone), the TUNEL-positive cells is on record as less than 2%. In addition, the “cytochrome C release and mitochondrial membrane potential” value in data set [2] is “loss of mitochondrial membrane potential and release of cytC”.

As for `NC(=O)NO` [hydroxyurea], in the data set on HeLa cells (10 mM hydroxyurea alone), the TUNEL-positive cells is listed as less than 2%.

Regarding `OC[C@@H](O)[C@@H](O)[C@H](O)[C@@H](O)CO` [sorbitol], the TUNEL-positive cells in the data set on HeLa cells (400 mM sorbitol with mock inhibitor z-FA-fmk) was roughly 80%; in the data set with HeLa cells (400 mM sorbitol with z-VAD-fmk inhibitor), less than 10%.

For the compound `N=C(N)NCCC[C@@H](NC(=O)CNC(=O)CNC(=O)[C@@H](CCCNC(=N)N)NC(=O)[C@@H](Cc1ccc(O)cc1)NC(=O)[C@@H](Cc1c[nH]c2ccccc12)NC(=O)[C@@H](CCCNC(=N)N)NC(=O)[C@H](N)Cc1c[nH]c2ccccc12)C(=O)N[C@H](Cc1ccc(O)cc1)C(=O)N[C@H](Cc1c[nH]c2ccccc12)C(=O)N[C@H](CCCNC(=N)N)C(=O)N[C@H](Cc1c[nH]c2ccccc12)C(N)=O` [wrwyrggrywrw] (H-[dW][dR][dW][dY][dR]GG[dR][dY][dW][dR][dW]-NH2), the results for the IC50 in the data set with LnCAP cells, in the data set with DuPro-1 cells and with PC3 cells [1] (48 h) were 25 µM, 25 µM and 50 µM, respectively. The same compound registered an intracellular concentration with PC3 cells [3] (25 µM input dose, PC3 cells, 48 h, cell lysate soluble fraction, HPLC C18 against standard curve, cell volume 1.6–2.4 pl) of roughly 1 mM. Also, in the data set with PC3 cells [3] (media with 10% FBS after treatment of PC3 cells, several input concentrations, HPLC (Figure 2Aii)), the “peptide in the media less than input” value was 5–10%.

As for Tunicamycin, in data set [4] (concentration not given), the “pGRP78 Units” value turned out to be 425255±16205 and the “pSV40 Units” value turned out to be 4606±362.1. Moreover, in data set [4] (over the media), the pGRP78/pSV40 stood at 20.0±1.36, the “pGRP78 Fold change” value is recorded as 7.9±0.09 and the “pSV40 Fold change” value amounted to 0.4±0.02.
